Data taken from ChEMBL document CHEMBL6096675 (J Med Chem, 2025).
pIC50: −log10 of the molar value. Blank lines part the entries; values can stand above or below the compound they belong to. The source made the active and inactive calls. No cut-off for these calls is given here.

Assays:
[1] = Antiproliferative activity against human SMARCA4-deficient NCI-H1944 cells assessed as inhibition of cell growth measured after 7 days by WST-8 assay; format: functional; conditions: NCI-H1944, 168 h, time 7 day
[2] = Antiproliferative activity against human SMARCA4-deficient NCI-H838 cells assessed as inhibition of cell growth measured after 7 days by WST-8 assay; format: functional; conditions: NCI-H838, 168 h, time 7 day
[3] = Antiproliferative activity against human SMARCA4-deficient NCI-H1944 cells assessed as maximal inhibition of cell growth measured after 7 days by WST-8 assay relative to control; format: functional; conditions: time 7 day
[4] = Antiproliferative activity against human SMARCA4-deficient NCI-H838 cells assessed as maximal inhibition of cell growth measured after 7 days by WST-8 assay relative to control; format: functional; conditions: time 7 day
NCI-H1792 [5] = assay: Antiproliferative activity against human SMARCA4-wild type NCI-H1792 cells assessed as maximal inhibition of cell growth measured after 7 days by WST-8 assay relative to control; format: functional; conditions: time 7 day
[6] = Antiproliferative activity against human SMARCA4-deficient NCI-H1568 cells assessed as inhibition of cell growth measured after 7 days by WST-8 assay; format: functional; conditions: NCI-H1568, 168 h, time 7 day
[7] = Antiproliferative activity against human SMARCA4-deficient NCI-H1693 cells assessed as maximal inhibition of cell growth measured after 7 days by WST-8 assay relative to control; format: functional; conditions: time 7 day
SK-MEL-28 [8] = assay: Antiproliferative activity against human SMARCA4-wild type SK-MEL-28 cells assessed as inhibition of cell growth measured after 7 days by WST-8 assay; format: functional; conditions: SK-MEL-28, 168 h, time 7 day
SK-MEL-5 = assay: Antiproliferative activity against human SMARCA4-deficient SK-MEL-5 cells assessed as inhibition of cell growth measured after 7 days by WST-8 assay; format: functional; conditions: SK-MEL-5, 168 h, time 7 day
NCI-H838 = assay: In vivo anti-tumor activity against SMARCA4-deficient human NCI-H838 cells xenografted in SCID mouse assessed as assessed as inhibition of tumor growth at 10 to 30 mg/kg, iv weekly once; format: functional, organism-based; conditions: dose 10-30 mg/kg
[9] = Antiproliferative activity against human […] NCI-H1975 cells assessed as maximal inhibition of cell growth measured after 7 days by WST-8 assay relative to control; format: functional; conditions: time 7 day
SK-MEL-28 [10] = assay: Antiproliferative activity against human SMARCA4-wild type SK-MEL-28 cells assessed as maximal inhibition of cell growth measured after 7 days by WST-8 assay relative to control; format: functional; conditions: time 7 day
[11] = Antiproliferative activity against human […] NCI-H1975 cells assessed as inhibition of cell growth measured after 7 days by WST-8 assay; format: functional; conditions: NCI-H1975, 168 h, time 7 day
[12] = Antiproliferative activity against human SMARCA4-deficient NCI-H1693 cells assessed as inhibition of cell growth measured after 7 days by WST-8 assay; format: functional; conditions: NCI-H1693, 168 h, time 7 day
NCI-H1792 [13] = assay: Antiproliferative activity against human SMARCA4-wild type NCI-H1792 cells assessed as inhibition of cell growth measured after 7 days by WST-8 assay; format: functional; conditions: NCI-H1792, 168 h, time 7 day
[14] = Antiproliferative activity against human SMARCA4-deficient NCI-H1568 cells assessed as maximal inhibition of cell growth measured after 7 days by WST-8 assay relative to control; format: functional; conditions: time 7 day
[15] = Plasma concentration in SCID mouse xenografted with human NCI-H838 cells at 10 mg/kg, iv measured after 48 hrs by LC-MS/MS analysis; format: ADME, organism-based
[16] = Drug uptake in tumor of human NCI-H838 cells xenografted SCID mouse model at 10 mg/kg, iv measured after 48 hrs by LC-MS/MS analysis; format: ADME, organism-based, Neoplasm; conditions: read-out: Drug uptake
[17] = Plasma concentration in SCID mouse xenografted with human NCI-H838 cells at 10 mg/kg, iv measured after 168 hrs by LC-MS/MS analysis; format: ADME, organism-based; conditions: SCID, plasma
[18] = molecular target: von Hippel-Lindau disease tumor suppressor/SWI/SNF-related matrix-associated actin-dependent regulator of chromatin subfamily A member 2 (Homo sapiens, UniProt P51531+P40337); assay: PROTAC activity at SMARCA2/VHL1 in human HeLa cells assessed as protein degradation by Nano-Glo HiBiT lytic detection assay; format: cell-based
[19] = molecular target: T1, von Hippel-Lindau disease tumor suppressor/SWI/SNF-related matrix-associated actin-dependent regulator of chromatin subfamily A member 4 (Homo sapiens, UniProt P51532+P40337); assay: PROTAC activity at SMARCA4/VHL1 in human HeLa cells assessed as protein degradation by Nano-Glo HiBiT lytic detection assay; format: cell-based
[20] = Drug uptake in tumor of human NCI-H838 cells xenografted SCID mouse model at 10 mg/kg, iv measured after 168 hrs by LC-MS/MS analysis; format: ADME, organism-based, Neoplasm; conditions: read-out: Drug uptake
[21] = molecular target: von Hippel-Lindau disease tumor suppressor (Homo sapiens, UniProt P40337); assay: Inhibition of VHL (unknown origin)
[22] = molecular target: T1, von Hippel-Lindau disease tumor suppressor/SWI/SNF-related matrix-associated actin-dependent regulator of chromatin subfamily A member 4; assay: PROTAC activity at SMARCA4/VHL1 in human HeLa cells assessed as protein degradation after 2 hrs by Nano-Glo HiBiT lytic detection assay; format: cell-based

Chain of von Hippel-Lindau disease tumor suppressor (P40337 whole entry): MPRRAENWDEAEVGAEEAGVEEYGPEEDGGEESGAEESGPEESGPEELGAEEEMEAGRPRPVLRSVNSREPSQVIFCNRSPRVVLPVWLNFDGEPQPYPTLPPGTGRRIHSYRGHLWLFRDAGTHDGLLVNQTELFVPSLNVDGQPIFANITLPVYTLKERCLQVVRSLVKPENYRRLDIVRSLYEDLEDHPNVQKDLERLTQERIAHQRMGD
T1 sequence (P51532 whole entry): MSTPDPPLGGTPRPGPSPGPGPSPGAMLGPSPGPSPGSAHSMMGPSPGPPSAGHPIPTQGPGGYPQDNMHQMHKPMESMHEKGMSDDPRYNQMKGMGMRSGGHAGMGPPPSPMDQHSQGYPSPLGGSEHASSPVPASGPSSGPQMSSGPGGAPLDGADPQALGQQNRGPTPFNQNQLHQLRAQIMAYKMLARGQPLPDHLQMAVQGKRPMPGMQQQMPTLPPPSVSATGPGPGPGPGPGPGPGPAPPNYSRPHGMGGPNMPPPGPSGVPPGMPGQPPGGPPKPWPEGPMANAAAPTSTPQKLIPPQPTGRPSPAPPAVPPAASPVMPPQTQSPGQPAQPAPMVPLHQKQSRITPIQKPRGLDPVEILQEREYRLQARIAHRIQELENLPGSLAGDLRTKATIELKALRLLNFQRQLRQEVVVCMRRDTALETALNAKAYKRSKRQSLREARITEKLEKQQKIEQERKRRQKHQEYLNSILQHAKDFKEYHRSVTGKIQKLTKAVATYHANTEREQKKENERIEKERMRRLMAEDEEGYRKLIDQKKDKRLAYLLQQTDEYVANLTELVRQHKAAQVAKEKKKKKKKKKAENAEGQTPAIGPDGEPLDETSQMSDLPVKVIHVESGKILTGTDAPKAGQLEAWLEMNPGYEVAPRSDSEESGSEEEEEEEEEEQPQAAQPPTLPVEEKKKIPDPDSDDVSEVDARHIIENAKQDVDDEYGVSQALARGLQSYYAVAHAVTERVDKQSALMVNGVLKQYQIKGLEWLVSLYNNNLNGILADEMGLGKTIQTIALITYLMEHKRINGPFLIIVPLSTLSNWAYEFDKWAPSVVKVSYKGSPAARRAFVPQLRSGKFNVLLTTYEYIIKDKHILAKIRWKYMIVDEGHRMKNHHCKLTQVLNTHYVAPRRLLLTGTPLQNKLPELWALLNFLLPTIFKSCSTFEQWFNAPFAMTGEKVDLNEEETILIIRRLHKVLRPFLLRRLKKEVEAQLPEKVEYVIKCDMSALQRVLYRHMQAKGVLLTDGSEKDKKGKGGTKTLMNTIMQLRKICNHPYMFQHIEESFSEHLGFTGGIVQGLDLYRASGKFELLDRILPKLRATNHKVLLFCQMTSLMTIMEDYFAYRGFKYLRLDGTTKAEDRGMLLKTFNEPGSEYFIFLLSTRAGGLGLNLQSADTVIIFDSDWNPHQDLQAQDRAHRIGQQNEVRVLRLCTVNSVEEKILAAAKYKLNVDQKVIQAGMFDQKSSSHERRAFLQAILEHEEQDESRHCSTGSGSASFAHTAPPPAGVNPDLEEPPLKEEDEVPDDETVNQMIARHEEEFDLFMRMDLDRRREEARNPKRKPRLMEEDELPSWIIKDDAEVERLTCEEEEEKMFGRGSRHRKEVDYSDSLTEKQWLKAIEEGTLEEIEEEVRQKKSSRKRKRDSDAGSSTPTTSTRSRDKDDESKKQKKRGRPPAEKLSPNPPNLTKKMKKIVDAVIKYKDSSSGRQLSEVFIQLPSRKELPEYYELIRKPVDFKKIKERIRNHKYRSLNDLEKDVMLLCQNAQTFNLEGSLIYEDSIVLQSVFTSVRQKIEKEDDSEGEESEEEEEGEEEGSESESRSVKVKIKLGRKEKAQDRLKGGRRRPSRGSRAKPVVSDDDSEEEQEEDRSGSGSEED
T1 sequence (P40337 whole entry): as the sequence (P40337 whole entry) above
Chain of von Hippel-Lindau disease tumor suppressor/SWI/SNF-related matrix-associated actin-dependent regulator of chromatin subfamily A member 2 (P51531 whole entry): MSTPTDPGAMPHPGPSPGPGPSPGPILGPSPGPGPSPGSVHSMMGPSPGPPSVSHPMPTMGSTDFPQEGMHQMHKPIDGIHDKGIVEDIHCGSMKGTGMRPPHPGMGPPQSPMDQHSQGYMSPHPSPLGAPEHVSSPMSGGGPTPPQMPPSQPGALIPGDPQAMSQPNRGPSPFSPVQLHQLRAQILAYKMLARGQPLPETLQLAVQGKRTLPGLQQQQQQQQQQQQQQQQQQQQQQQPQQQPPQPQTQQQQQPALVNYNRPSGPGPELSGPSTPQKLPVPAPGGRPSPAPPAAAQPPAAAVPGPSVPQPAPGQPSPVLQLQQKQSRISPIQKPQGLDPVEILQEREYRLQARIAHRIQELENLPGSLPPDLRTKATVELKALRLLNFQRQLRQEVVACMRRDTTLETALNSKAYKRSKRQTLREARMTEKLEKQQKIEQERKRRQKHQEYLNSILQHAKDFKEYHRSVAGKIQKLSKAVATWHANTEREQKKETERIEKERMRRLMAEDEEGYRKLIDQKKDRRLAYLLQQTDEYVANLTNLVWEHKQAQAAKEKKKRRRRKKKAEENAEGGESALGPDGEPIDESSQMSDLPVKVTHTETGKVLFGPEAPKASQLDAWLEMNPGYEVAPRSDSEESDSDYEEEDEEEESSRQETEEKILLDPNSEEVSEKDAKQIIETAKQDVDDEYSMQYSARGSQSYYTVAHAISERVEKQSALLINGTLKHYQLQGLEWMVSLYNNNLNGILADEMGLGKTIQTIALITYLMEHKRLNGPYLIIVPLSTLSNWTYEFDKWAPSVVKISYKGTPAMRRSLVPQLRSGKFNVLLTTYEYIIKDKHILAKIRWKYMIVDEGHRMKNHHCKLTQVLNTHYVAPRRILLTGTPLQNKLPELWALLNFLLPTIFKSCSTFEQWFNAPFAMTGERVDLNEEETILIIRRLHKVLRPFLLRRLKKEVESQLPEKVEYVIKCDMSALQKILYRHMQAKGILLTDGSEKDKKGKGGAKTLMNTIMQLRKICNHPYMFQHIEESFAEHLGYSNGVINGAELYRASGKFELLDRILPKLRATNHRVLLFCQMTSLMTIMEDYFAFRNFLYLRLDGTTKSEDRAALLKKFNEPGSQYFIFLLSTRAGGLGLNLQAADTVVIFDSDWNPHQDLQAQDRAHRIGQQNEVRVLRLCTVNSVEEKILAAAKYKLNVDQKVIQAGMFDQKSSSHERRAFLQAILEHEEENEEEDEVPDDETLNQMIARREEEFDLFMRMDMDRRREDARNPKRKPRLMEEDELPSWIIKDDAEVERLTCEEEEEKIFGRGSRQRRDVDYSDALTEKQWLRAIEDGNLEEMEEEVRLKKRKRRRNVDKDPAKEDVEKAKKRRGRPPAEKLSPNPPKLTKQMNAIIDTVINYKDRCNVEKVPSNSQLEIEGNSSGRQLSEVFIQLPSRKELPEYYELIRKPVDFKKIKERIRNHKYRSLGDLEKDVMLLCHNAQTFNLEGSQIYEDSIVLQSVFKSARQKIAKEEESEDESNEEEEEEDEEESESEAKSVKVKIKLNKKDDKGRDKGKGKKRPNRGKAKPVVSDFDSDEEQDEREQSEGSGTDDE
Chain of von Hippel-Lindau disease tumor suppressor/SWI/SNF-related matrix-associated actin-dependent regulator of chromatin subfamily A member 2 (P40337 whole entry): as the sequence (P40337 whole entry) above

GI50 (SK-MEL-28 [8]): > 10000 nM | GI50 (SK-MEL-5): 16 nM | GI50 (NCI-H1792 [13]): > 10000 nM
SMILES: Cc1ncsc1-c1ccc([C@H](C)NC(=O)[C@@H]2C[C@@H](O)CN2C(=O)[C@@H](NC(=O)[C@H]2CC[C@H](CN3CC4(CCC(n5cc(-c6cc(-c7ccccc7O)nnc6N)cn5)CC4)C3)CC2)C(C)(C)C)cc1
GI50 [1]: 123 nM | GI50 [2]: 152 nM | Imax [3]: 70% | Imax [4]: 77% | Imax (NCI-H1792 [5]): 25% | GI50 [6]: 12 nM | Imax [7]: 81% | Activity (NCI-H838): Active | Imax [9]: 40% | Imax (SK-MEL-28 [10]): 15% | GI50 [11]: > 10000 nM | GI50 [12]: 43 nM | Imax [14]: 87%

concentration at 48 h [15]: 30 ng/mL | concentration at 48 h [16]: 491 ng/mL | concentration at 168 h [17]: 2.6 ng/mL | DC50 [18]: 0.1 nM | DC50 [19]: > 1000 nM | concentration at 168 h [20]: 65 ng/mL
SMILES: Cc1ncsc1-c1ccc([C@H](CN2CCOCC2)NC(=O)[C@@H]2C[C@@H](O)CN2C(=O)[C@H](C2CCOCC2)n2cc([C@H]3CC[C@H](CN4CCC(c5ccc6c(c5)-n5c(nc(=O)c7c(Cl)cccc75)C65CCCCC5)CC4)CC3)nn2)cc1

pIC50 [21]: 7.79
SMILES: Cc1cn([C@H](C(=O)N2C[C@H](O)C[C@H]2C(=O)N[C@@H](C)c2ccc(-c3scnc3C)cc2)C(C)(C)C)nn1

DC50 [22]: Not_active
SMILES: Cc1ncsc1-c1ccc([C@H](CN2CCOCC2)NC(=O)[C@@H]2C[C@H](O)CN2C(=O)[C@@H](n2cc([C@H]3CC[C@H](CN4CCC(c5ccc6c(c5)C5(CCCCC5)c5nc(=O)c7c(Cl)cccc7n5-6)CC4)CC3)nn2)C(C)(C)C)cc1

pIC50 [21]: 7.72
SMILES: Cc1ncsc1-c1ccc([C@H](C)NC(=O)[C@@H]2C[C@@H](O)CN2C(=O)[C@@H](n2cc(C3CC3)nn2)C(C)(C)C)cc1
